Measurements from patent US20200268864A1, “CANCER VACCINE COMPOSITIONS AND METHODS FOR USING SAME TO TREAT CANCER” (Dana-Farber Cancer Institute, Inc., priority 2017, published 2020).
Entries after “also recorded” stand apart in the source; their conditions may differ.

Tests used:
PBM and PPM tumor cells = test: Western blot of cGAS-STING signaling in tumor cells; format: cell-based, mouse
PBM tumor-bearing mice = test: Cytokine array of plasma/sera; format: in vivo, mouse; conditions: day 2 of treatment
Method: Blood was obtained by retro-orbital sampling at intermediate time points or experimental end points. Blood cells and plasma/sera were separated by centrifugation at 1,500×g for 5 min. at 4° C. Plasmaisera were sent out to Eve Technologies for cytokine array analysis (Chemokine Array 31-Plex and Mouse Procarta IFN 2-plex Featured Assay). Plasma/sera were applied to ELISA according to manufacturer's instructions. For in vitro experiments, cell culture supernatants were obtained by centrifugation at 1,500×g for 5 min. at 4° C. to remove all debris and cells, and were then subjected to ELISA analysis. IFN-β was detected using the LEGEND MAX™ Mouse IFN-β ELISA Kit (BioLegend).

PBM tumor tissues = test: Gene Set Enrichment Analysis of PBM tumor tissues; format: in vivo, mouse; conditions: 18 days of treatment, vs vehicle; panel of 4604 genes
Method: RNA was isolated from tumor samples as described above, sequenced on the ion Torrent platform per manufacturer's instructions using a custom AmpliSeq panel targeting 4604 murine genes relevant to our studies, and raw data was processed using the Torrent Suite and AmpliSeqRNA plugin to give read counts per gene. Differential gene expression analyses were carried out using DESeq2 with default parameters to obtain log 2 fold change (MAP) and adjusted p-values (Benjamini-Hochberg procedure) (Love et al. (2014) Genorme Biol. 15:550). Genes were ranked by log 2 fold change (MAP), and GSEA were carried out using the GSEAPreranked tool (Mootha et al. (2003) Nat. Genet. 34:267-273; Subramanian et al. (2005) Proc. Natl. Acad. Sci. USA 102:15545-15550). PCA were carried out using DESeq2.

PPM tumor bearing mice = test: Flow cytometry of tumor-infiltrating immune cells in PPM tumors; conditions: mouse, in vivo
Method: (§1) Tumors were first mechanically disrupted by chopping, then chemically digested in collagenase buffer (8 mL DMEM, 0.1 mL 1M HEPES, 0.5 mL FBS, 0.2 mL Pen/Strep, 1 m, 10× collagenase/hyaluronidase (Stemcell Technologies), 0.2 mL of 1 mg/mL DNase I (Stemcell Technologies) at 37° C. for 45 min. Single-cell suspensions of spleen and lymph nodes were obtained by mashed through a 70 um strainer using the plunger of a 3 mL or 5 mL syringe. Single cells suspensions were treated with red blood lysis buffer (4 mL NH4Cl+1 mL PBS with 2% calf serum) and washed with FACS buffer. Single cells suspensions were incubated with LIVE/DEAD Fixable Aqua Dead Cell Stain (Life Technologies, Cat # L34965) for 30 min and then blocked with anti-CD16/32 (BioLegend, clone 93) for 20 min on ice. Samples were then incubated with appropriate antibodies for 30 min. on ice. The Foxp3 staining buffer set (eBioscience, Cat #00-5523-00) was applied for intracellular markers staining. For the intracellular cytokine analysis, cells were stimulated with Leukocyte Activation Cocktail (BD Biosciences, Cat #550583) at 37° C. for 5 hours prior to FACS staining. […] Flow cytometry was performed on an LSR II (BD Biosciences) or LSRFortessa™ HTS (BD Biosciences) at the DFCI flow cytometry core facility, and all the data were analyzed using FlowJo software.

PD-L1 on PBM tumor cells = test: PD-L1 expression on PBM tumor cells (RT-qPCR, flow cytometry); parameters: species or system mouse; conditions: PBM tumors in vivo and cultured PBM cells
Method: as §1, with “software. […]” for “software.”

[1] = tested on: STING pathway in PPM tumors; test: STING pathway activation in PPM tumors; conditions: mouse, in vivo
Method: as §1, with “software. […]” for “software.”

Question: For `O=C(c1cc(Cc2n[nH]c(=O)c3ccccc23)ccc1F)N1CCN(C(=O)C2CC2)CC1` [olaparib, Olaparib], which “STING signaling activity in tumor cells” value (PBM and PPM tumor cells) is on record?
Answer: little STING signaling activity

Question: And the “plasma/sera cytokine levels (CXCL9, CXCL10, IFNβ and others)” value (PBM tumor-bearing mice)?
Answer: significant increase; also recorded: increased levels of multiple cytokines

Question: What about the “plasma/sera cytokine levels (CXCL9, CXCL10, IFNβ and others)” value (PBM tumor-bearing mice; listed as Olaparib) of the same compound?
Answer: changes on the levels of various cytokines

Question: And the “GSEA: expression of immune-related gene sets” value (PBM tumor tissues)?
Answer: markedly upregulated expression of genes associated with immune response, T-cell activation and interferon-γ (IFNγ) response

Question: What about the “intratumoral immune responses in PPM tumor bearing mice” value (PPM tumor bearing mice) of the same compound?
Answer: not found

Question: What about the “expression of immune-inhibitory ligand PD-L1 on tumor cells” value (PD-L1 on PBM tumor cells) of the same compound?
Answer: highly enhanced expression; also recorded: significantly increased expression

Question: What about the “hallmarks of STING pathway activation in PPM tumors” value [1] of the same compound?
Answer: not observed
